Assay results as given in US10017712B2, “Method for producing vitamin E-enriched, especially tocotrienol-enriched, compositions from natural oils” (Evonik Degussa GmbH, priority 2014, dated 2018).

Assays:
[1] = Partition coefficients of individual tocopherols and tocotrienols, palm oil with ethanol or methanol; assay type: physicochemical
Protocol: Table 3 provides values of the individual partition coefficient values of tocopherol and tocotrienol compounds found in palm oil. The values were measured by contacting palm oil and ethanol (denoted PC Eth in Table 3) and palm oil and methanol (denoted PC Meth in Table 3) at the oil to solvent ratios noted in the table—e.g. PC Eth 1:5 means that one volume of palm oil was contacted with 5 volumes of ethanol.

[2] = Single stage methanol extraction of vegetable oils, partition coefficient; assay type: physicochemical
Protocol: First methanol was tested for its efficiency in extracting of α-tocopherol and FFA from three vegetable oils. 200-300 ml of oil was mixed with the solvent using a magnetic stirrer at 35° C. The mixture is gravity separated and the oil stayed at the bottom. Partition coefficients of α-tocopherol and FFA were obtained by measuring the concentration of both compounds in the extract and the bottom fraction without evaporation of the solvent. The partition coefficient is calculated as follows: PC=(concentration in the extract)/(concentration in the bottom fraction).

[3] = PC Meth 1:1 (palm oil:methanol)
[4] = PC Meth 1:2 (palm oil:methanol)
[5] = PC Meth 1:5 (palm oil:methanol)
[6] = PC Meth 1:7 (palm oil:methanol)
[7] = PC Meth 1:3 (palm oil:methanol)

Structure (SMILES) | Partition coefficient ([1]; PC Eth 1:1 (palm oil:ethanol)) | Partition coefficient ([1]; PC Eth 1:2 (palm oil:ethanol)) | Partition coefficient ([1]; PC Eth 1:5 (palm oil:ethanol)) | Partition coefficient ([1]; PC Eth 1:7 (palm oil:ethanol)) | Partition coefficient [1, 3] | Partition coefficient [1, 4] | Partition coefficient [1, 5] | Partition coefficient [1, 6] | Partition coefficient ([1]; PC Eth 1:3 (palm oil:ethanol)) | Partition coefficient [1, 7] | Partition coefficient ([2]; Palm Oil, Solvent:Oil Ratio 2:1, 35° C.) | Partition coefficient ([2]; Rapeseed Oil, Solvent:Oil Ratio 3:1, 35° C.) | Partition coefficient ([2]; Rice Bran Oil, Solvent:Oil Ratio 2:1, 35° C.)
Cc1cc(O)cc2c1O[C@](C)(CCC[C@H](C)CCC[C@H](C)CCCC(C)C)CC2 [Delta-tocopherol] | 0.50 | 0.47 | 0.53 | 0.29 | 0.25 | 0.07 | 0.09 | 0.01 |  |  |  |  | 
CC(C)=CCC/C(C)=C/CC/C(C)=C/CC[C@]1(C)CCc2cc(O)c(C)c(C)c2O1 [Gamma-tocotrienol] | 0.72 | 0.81 | 0.79 | 0.53 | 1.17 | 0.64 | 0.46 | 0.36 | 0.85 | 0.76 |  |  | 
Cc1c(C)c2c(c(C)c1O)CC[C@@](C)(CCC[C@H](C)CCC[C@H](C)CCCC(C)C)O2 [α-tocopherol] | 0.30 | 0.31 | 0.42 | 0.22 | 0.21 | 0.15 | 0.11 | 0.09 | 0.25 | 0.21 | 0.15 | 0.39 | 0.20
